Assay results taken from US4309559A, “Sulphonamides useful as pesticides” (FBC Limited, priority 1977, dated 1982).

How the values were obtained:
Maize (Zea mays) = test: Soil incorporation (attaclay/sand dust), growth regulatory or herbicidal effects, maize; format: in vivo; settings: 504 h, soil incorporation 130 ppm, 21 days, 0=no effect, 100=complete kill/suppression, read-out: growth regulatory or herbicidal effect score
Description: (§1) The compounds listed below were each formulated as an attaclay/sand dust and incorporated into John Innes I potting compost at a rate equivalent to 26 parts per million weight/volume of active ingredient to soil and placed in anodised aluminium pans, 19 cm long×9.5 cm wide×5.0 cm deep. This rate is approximately equivalent to a soil surface application of 11.2 kg active ingredient/hectare cultivated to a depth of 5 cm. Seeds of the species listed below were sown in the treated soil, watered and placed in a controlled environment room (22° C.; 65-85% relative humidity; 14 hours per day artificial illumination at 13,000 lux) for 21 days. The plants were then visually assessed for any growth regulatory or herbicidal effects. All differences from an untreated control were scored on a scale from 0-100, where 0 signifies no effect and 100 signifies complete kill.
(§2) The compounds listed below were tested according to the procedure of Examples 56-60 but at 130 parts per million weight/volume of active ingredient to soil. This rate is approximately equivalent to a soil surface application of 56 kg active ingredient per hectare cultivated to a depth of 5 cm.
(§3) The product of Example 95 was tested according to the procedure of Examples 56-60 but at 130 and 26 parts per million weight/volume. The results were as follows:
(§4) N-(2-oxopropyl)-2'-chloro-6'-methyl-methanesulphonanilide, formulated as an attaclay/sand dust, was incorporated in John Innes I potting compost at a rate equivalent to 130 parts per million weight/volume of active ingredient to soil and placed in anodised aluminium pans, 19 cm long×9.5 cm wide×5.0 cm deep. These rates are approximately equivalent to a soil surface application of 56 kg active ingredient per hectare cultivated to a depth of 5 cm. Seeds of Peas, Mustard, Linseed, Maize, Oats and Ryegrass were sown in the treated soil, watered and placed in a controlled environment room (22° C.; 65-85% relative humidity; 14 hours artificial illumination at 13000 lux) for 21 days.
(§5) The plants were then visually assessed for any growth regulatory or herbicidal effects. All differences from an untreated control were scored on a scale from 0-100, where 0 signifies no effect and 100 signifies complete suppression.

[1] = tested on: Linseed (Linum usitatissimum); test: Soil incorporation (attaclay/sand dust), growth regulatory or herbicidal effects, linseed; format: in vivo; settings: 504 h, soil incorporation 130 ppm, 21 days, 0=no effect, 100=complete kill/suppression, read-out: growth regulatory or herbicidal effect score
Description: as §1, §2, §3, §4, §5

Mustard (Sinapis alba) = test: Soil incorporation (attaclay/sand dust), growth regulatory or herbicidal effects, mustard; format: in vivo; settings: 504 h, soil incorporation 130 ppm, 21 days, 0=no effect, 100=complete kill/suppression, read-out: growth regulatory or herbicidal effect score
Description: as §1, §2, §3, §4, §5

Oats (Avena sativa) = test: Soil incorporation (attaclay/sand dust), growth regulatory or herbicidal effects, oats; format: in vivo; settings: 504 h, soil incorporation 130 ppm, 21 days, 0=no effect, 100=complete kill/suppression, read-out: growth regulatory or herbicidal effect score
Description: as §1, §2, §3, §4, §5

[2] = tested on: Ryegrass (Lolium perenne); test: Soil incorporation (attaclay/sand dust), growth regulatory or herbicidal effects, ryegrass; format: in vivo; settings: 504 h, soil incorporation 130 ppm, 21 days, 0=no effect, 100=complete kill/suppression, read-out: growth regulatory or herbicidal effect score
Description: as §1, §2, §3, §4, §5

Peas (Pisum sativum) = test: Soil incorporation (attaclay/sand dust), growth regulatory or herbicidal effects, peas; format: in vivo; settings: Lathyrus oleraceus, 504 h, soil incorporation 130 ppm, 21 days, 0=no effect, 100=complete kill/suppression, read-out: growth regulatory or herbicidal effect score
Description: as §1, §2, §3, §4, §5

Pythium ultimum [3] = test: Fungal growth on the surface of soil infected with damping-off disease organism; format: in vivo; settings: 6 days, 25° C.
Experimental: (§6) A one week old maize meal/sand culture of the damping-off disease organism Pythium ultimum was thoroughly mixed by hand with clean sterile John Innes No. 1 potting compost in the ratio of 3 kg culture to 12 liters of soil. The infected soil was then left for approximately 18 hours before use. Each of the compounds listed below was ground together with a wetting agent, Tween 20 (1% of final volume), until a solution or fine suspension was produced which was then diluted with distilled water to give 160 ml of solution containing 1500, 500, 150 or 50 ppm active ingredient. 15 ml aliquots of this solution were added to 75 g portions of the soil infected with Pythium ultimum which were contained in small plastic cartons, 60 mm diameter×55 mm high. Fifteen cabbage seeds, variety Flower of Spring, were placed in a circular depression in the treated infected soil, recovered, and the whole sealed with a plastic cap. The cartons were then placed in a constant temperature room at 25° C.±1° C. Four replications per treatment were made with one additional treatment where seeds were sown in soil which was chemically treated only, i.e. there was no infection. This latter treatment was included to measure the direct effect of the chemical on the germination of the seed. After six days the cartons were removed from the controlled temperature chamber and assessed for degree of fungal growth on the soil surface and percentage of seedling emergence. The results of both these assessments are expressed in a 0-8 scale as follows:
(§7) One week old maize meal/sand culture of the damping-off disease organism Pythium ultimum was thoroughly mixed by hand with clean sterile John Innes No. 1 potting compost in the ratio of 3 kg culture to 12 liters of soil. This infected soil was then left for approximately 18 hours before use. The compounds listed in the Table below were each ground with the wetting agent Tween 20 (1% of final volume), until a solution or fine suspension was produced, which was then diluted with distilled water to give 160 ml of solution containing 1500 or 500 parts per million (ppm) active ingredient. 15 ml aliquots of this solution were added to 75 g portions of the soil infected with Pythium ultimum which were contained in small plastic cartons, 60 mm diameter×55 mm high.
(§8) Fifteen cabbage seeds, variety Flower of Spring, were placed in a circular depression in the treated infected soil, recovered, and the whole sealed with a plastic cap. The cartons were then placed in a constant temperature room at 25° C.±1° C. Four replications per treatment were made, with one additional treatment where seeds were sown in soil which was chemically treated only, i.e. there was no infection. This latter treatment was included to measure the direct effect of the chemical on the germination of the seed.
(§9) After six days, the cartons were removed from the controlled temperature chamber and assessed for degree of fungal growth on the soil surface and percentage of seedling emergence. The results of both these assessments are expressed in a 0-8 scale as follows:
(§10) N-(2-oxopropyl)-3',4'-dimethyl-methanesulphonanilide was tested at a dose rate of 300 ppm in the test described in Examples 233 and 234. It gave a mycelial control score of 0 and a germination score of 3 whereas the untreated samples gave a score of 0 for both.

Pythium ultimum [4] = test: Cabbage seedling emergence in soil infected with Pythium ultimum; format: in vivo, Pythium ultimum (on cabbage, variety Flower of Spring); settings: 6 days, 25° C.
Experimental: as §6, §7, §8, §9, §10

[5] = 300 ppm, 0-8 scale (Examples 233, 234, 268)

SMILES	plant injury at 130 µg/mL (Maize (Zea mays)) [%]	pest or weed control at 130 µg/mL [1] [%]	pest or weed control at 130 µg/mL (Mustard (Sinapis alba)) [%]	plant injury at 130 µg/mL (Oats (Avena sativa)) [%]	pest or weed control at 130 µg/mL [2] [%]	pest or weed control at 130 µg/mL (Peas (Pisum sativum)) [%]	Mycelial Control Score (Pythium ultimum [3]; 30 ppm, 0-8 scale)	Mycelial Control Score (Pythium ultimum [3]; 100 ppm, 0-8 scale)	Mycelial Control Score (Pythium ultimum [3]; 300 ppm, 0-8 scale)	Germination Score (Pythium ultimum [4]; 30 ppm, 0-8 scale)	Germination Score (Pythium ultimum [4]; 100 ppm, 0-8 scale)	Germination Score (Pythium ultimum [4]; 300 ppm, 0-8 scale)	Mycelial Control Score (Pythium ultimum [3]; [5])	Germination Score (Pythium ultimum [4]; [5])
CC(C(=O)O)N(c1ccc(Cl)c(Cl)c1)S(C)(=O)=O (centres unmarked) [Example 4]	70	90	70	40	0	70	–	–	–	–	–	–	–	–
CCc1ccccc1N(C(C)C(=O)O)S(C)(=O)=O (centres unmarked) [Example 5]	30	70	50	30	20	30	–	–	–	–	–	–	–	–
Cc1cccc(C)c1N([C@@H](C)C(=O)O)S(C)(=O)=O [Example 7, N-(2,6-dimethylphenyl)-N-methanesulphonyl alanine]	30	50	70	30	0	20	–	–	–	–	–	–	–	–
CCS(=O)(=O)N(c1c(C)cccc1C)C(C)C(=O)O (centres unmarked) [Example 9]	30	80	70	20	20	50	0 (<20% inhibition)	0 (<20% inhibition)	0 (<20% inhibition)	1 (20-34% inhibition)	5 (65-74% inhibition)	5 (65-74% inhibition)	–	–
CCOC(=O)CN(c1ccc(Cl)cc1)S(C)(=O)=O [Example 12]	0	80	70	5	5	40	–	–	–	–	–	–	–	–
CCOC(=O)CN(c1c(C)cccc1C)S(C)(=O)=O [Example 14]	40	90	100	20	30	30	–	–	–	–	–	–	–	–
CCOC(=O)CN(c1cccc(C(F)(F)F)c1)S(C)(=O)=O [Example 17]	0	90	40	0	0	40	–	–	–	–	–	–	–	–
CCOC(=O)CN(c1ccc(Cl)c(Cl)c1)S(C)(=O)=O [Example 18]	30	80	40	0	30	40	–	–	–	–	–	–	–	–
CCN(CC)C(=O)CN(c1ccc(Cl)cc1)S(C)(=O)=O [Example 35]	20	40	100	20	20	20	–	–	–	–	–	–	–	–
CCN(CC)C(=O)CN(c1c(C)cccc1C)S(C)(=O)=O [Example 36]	20	40	100	20	20	20	–	–	–	–	–	–	–	–
CS(=O)(=O)N(CC#N)c1ccc(Cl)cc1 [Example 45]	30	90	100	70	80	20	–	–	–	–	–	–	–	–
CC(C)c1ccccc1N(CC#N)S(C)(=O)=O [Example 47]	10	100	80	30	50	10	–	–	–	–	–	–	–	–
CS(=O)(=O)N(CC#N)c1cccc(C(F)(F)F)c1 [Example 48]	40	100	100	80	90	50	–	–	–	–	–	–	–	–
CC(=O)CN(c1c(C)cccc1Cl)S(C)(=O)=O [Example 210, N-2-oxopropyl-2'-chloro-6'-methyl-methanesulphonanilide]	5	80	100	60	70	30	–	–	–	–	–	–	–	–
CC1(CN(c2ccc(Cl)cc2)S(C)(=O)=O)OCCO1 [Example 228, N-[(2-methyl-1,3-dioxolan-2-yl)methyl]-4'-chloro-methanesulphonanilide]	–	–	–	–	–	–	–	–	–	–	–	–	8 (>94% inhibition)	0 (<20% inhibition)
